According to patent US20050289663A1, “Method of constructing orchid haploid by treating unfertilized orchid flower with auxin and method of growing orchid” (SAPPORO BREWERIES LIMITED, priority 2002, published 2005):

Key:
[1] = system: Bletilla. Brigantes “H5-11”; assay: Auxin treatment of unfertilized orchid flowers: parthenogenetic seed formation, germination and ploidy check (flow cytometry, chromosome count); format: in vivo
Method: In the first embodiment, Bletilla. Brigantes “H5-11” was used. The supplied testing plants were grown in the conventional method. The blooming was affirmed, pollens were removed and a treatment of dropping of 10 micro liter was performed with the warmed lanolin paste which contains 2% of α-naphthaleneacetic acid at column using the syringe. Since two or more flowers might exist in the same inflorescence, the above-mentioned treatment was performed about for each one repeatedly five or more times. After individuals in which its ovary got fat are ripened completely (6 to 7 months after the treatment), then they were obtained, they were sterilized their surface for 5 minutes with 0.5% of sodium hydrochlorite solution, planted them on a medium in germfree container, and the germination was forced. After planting, when the number of planted seeds and the number of seed with embryo were observed, 11 seeds with embryo were observed out of 7000 of the planted total number of seeds. […] After plants originating in auxin treatment grew in the suitable size for sampling (1 to 2 months after germination), DNA contents of these plants originating in auxin treatment were measured by flow cytometry, then chromosomes were observed simultaneously and the number of chromosomes was investigated. The investigation was done by obtaining new leaf of seedling, plants treated with α-naphthaleneacetic acid (NAA) of the present invention were investigated and also plants originating in self-pollination were investigated as a comparison. FIG. 2 is views showing results of analysis based on flow cytometry. FIG. 3 is views showing observation results of chromosomes under a microscope.

[2] = system: Zygopetalum; details: given to stigma of Zygopetalum; cited from earlier work

O=C(O)Cc1cccc2ccccc12 [α-naphthaleneacetic acid]
number of chromosomes of the plant originating in auxin treatment ([1]; 1 to 2 months after germination, microscope, 32 chromosomes for Bletilla Bringantes): 16 | DNA amount by flow cytometry: peak position versus plant originating in self-pollination ([1]; 1 to 2 months after germination, new leaf of seedling): half ploidy level | buds of plants originating in auxin treatment observed in the seeds with embryo ([1]; 2 weeks after planting of seeds, from the 11 seeds with embryo): 8 | DNA contents by flow cytometry: peak position versus plants originating in self-pollination ([1]; 5 to 6 months after germination): almost same position | number of seeds with embryo ([1]; out of 7000 of the planted total number of seeds, 10 micro liter lanolin paste containing 2% α-naphthaleneacetic acid dropped at column of unfertilized flower): 11 | induction of parthenogenesis [2]: parthenogenesis has been induced
